Patent US8557286B1, “Method for producing a water-insoluble amorphous or partially amorphous controlled release matrix” (EuroCeltique, S.A., priority 2000, dated 2013)

Test: Release of the active agent in a paddle agitator model according to USP
Type: physicochemical
Conditions: total dose of 25 mg; pure caffeine, not retarded, filled in a capsule; FIG. 3
Description: In this context it is once again pointed out that the degree of destructurization into the glass state is decisive for the kinetics of the release of the active agents. […] For comparative purposes, the release of pure caffeine, not retarded and filled in a capsule has been drawn in.

SMILES: Cn1c(=O)c2c(ncn2C)n(C)c1=O [caffeine]
- Time of release for the total dose: about 15 minutes
